{"source": "paper PMC12993615", "about": "(The journal of pain, 2024)", "key": {"[1]": {"molecular_target": "T1, CCK1 [cholecystokinin A receptor] (Homo sapiens, UniProt P32238)", "T1 sequence (P32238 1-428)": "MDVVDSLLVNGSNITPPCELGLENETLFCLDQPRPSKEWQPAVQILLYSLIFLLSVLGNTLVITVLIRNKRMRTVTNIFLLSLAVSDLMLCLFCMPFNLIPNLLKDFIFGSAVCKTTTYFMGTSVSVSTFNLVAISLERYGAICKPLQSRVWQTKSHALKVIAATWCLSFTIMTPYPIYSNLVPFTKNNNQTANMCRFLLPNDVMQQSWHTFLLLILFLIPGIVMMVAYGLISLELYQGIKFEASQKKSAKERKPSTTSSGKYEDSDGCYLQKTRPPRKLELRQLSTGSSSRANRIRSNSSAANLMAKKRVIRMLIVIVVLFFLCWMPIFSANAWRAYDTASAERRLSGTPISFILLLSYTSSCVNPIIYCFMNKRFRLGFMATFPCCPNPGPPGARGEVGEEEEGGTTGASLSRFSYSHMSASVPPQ", "test": "Secondary pharmacology panel (87 targets)", "format": "binding", "conditions": "test concentration 30 µM", "text": "(§1) Findings were considered significant if ≥50% inhibition of ligand binding or ≥50% stimulation/inhibition were shown in biochemical assays. Those receptors with values ≥50% were further evaluated for binding and functional half-maximal inhibitory concentrations (IC50)."}, "[2]": {"molecular_target": "T2, CCK2 [cholecystokinin B receptor] (Homo sapiens, UniProt P32239)", "T2 sequence (P32239 1-447)": "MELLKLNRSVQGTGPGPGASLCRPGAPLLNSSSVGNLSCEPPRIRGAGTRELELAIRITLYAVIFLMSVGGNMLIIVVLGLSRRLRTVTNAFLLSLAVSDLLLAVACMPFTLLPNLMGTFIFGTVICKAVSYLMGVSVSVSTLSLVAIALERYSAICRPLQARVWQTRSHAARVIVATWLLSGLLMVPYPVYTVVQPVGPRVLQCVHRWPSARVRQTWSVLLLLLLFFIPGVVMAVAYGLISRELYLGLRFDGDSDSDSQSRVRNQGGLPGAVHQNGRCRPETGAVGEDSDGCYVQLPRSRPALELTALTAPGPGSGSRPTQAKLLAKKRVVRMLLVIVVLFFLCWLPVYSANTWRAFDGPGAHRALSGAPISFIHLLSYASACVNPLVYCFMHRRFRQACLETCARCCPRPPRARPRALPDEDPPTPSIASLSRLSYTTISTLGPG", "test": "Secondary pharmacology panel (87 targets)", "format": "binding", "conditions": "test concentration 30 µM", "text": "as §1"}, "[3]": {"molecular_target": "T3, cathepsin G (Homo sapiens, UniProt P08311)", "T3 sequence (P08311 21-255)": "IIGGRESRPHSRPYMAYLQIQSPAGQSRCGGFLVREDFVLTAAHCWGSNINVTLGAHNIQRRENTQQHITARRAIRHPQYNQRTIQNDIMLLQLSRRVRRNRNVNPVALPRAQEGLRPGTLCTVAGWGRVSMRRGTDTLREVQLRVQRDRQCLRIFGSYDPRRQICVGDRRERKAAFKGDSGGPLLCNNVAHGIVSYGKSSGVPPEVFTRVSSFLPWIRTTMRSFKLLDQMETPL", "test": "Secondary pharmacology panel (87 targets)", "format": "binding", "conditions": "test concentration 30 µM", "text": "as §1"}, "[4]": {"molecular_target": "δ [DOP; delta opioid receptor] (Homo sapiens, UniProt P41143)", "sequence (P41143 whole entry)": "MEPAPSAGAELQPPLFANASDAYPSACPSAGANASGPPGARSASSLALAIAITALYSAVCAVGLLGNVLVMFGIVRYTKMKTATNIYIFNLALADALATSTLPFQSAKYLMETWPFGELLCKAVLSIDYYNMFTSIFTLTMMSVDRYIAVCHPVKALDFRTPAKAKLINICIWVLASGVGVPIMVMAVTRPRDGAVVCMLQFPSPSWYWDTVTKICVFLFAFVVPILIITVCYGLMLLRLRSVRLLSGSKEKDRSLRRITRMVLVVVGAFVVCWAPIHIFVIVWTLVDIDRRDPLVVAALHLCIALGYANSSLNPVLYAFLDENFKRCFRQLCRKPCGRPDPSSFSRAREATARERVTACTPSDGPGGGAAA", "test": "Secondary pharmacology panel (87 targets)", "format": "binding", "conditions": "test concentration 30 µM", "text": "as §1"}, "[5]": {"test": "Terminal plasma and brain concentrations, OIPN treatment study", "format": "in vivo", "conditions": "after 7 days dosing 25 mg/kg BID", "text": "Body weight was monitored throughout the study, and terminal plasma and whole brain samples were taken for bioanalysis."}, "[6]": {"test": "Terminal plasma levels, OIPN prevention study", "format": "in vivo, male Sprague Dawley rats", "text": "Pain measurements were made on Days 5/6 (when neuropathy has normally developed) and at the end of the study. […] Terminal plasma samples were taken for bioanalysis and proteomics (Somalogic). Brain regions involved in pain processing, that is, prefrontal cortex (PFC), periaqueductal grey (PAG), whole spinal cords (SC), and L4-L6 dorsal root ganglia, were collected for lipidomic and genomic (Genewiz, China) analyses."}, "[7]": {"system": "dorsal root ganglion lipids", "test": "Lipidomic analysis of terminal tissues, OIPN prevention study", "format": "in vivo, male Sprague Dawley rats", "conditions": "25 mg/kg BID, versus vehicle, P = .03", "method": "Pain measurements were made on Days 5/6 (when neuropathy has normally developed) and at the end of the study. […] Terminal plasma samples were taken for bioanalysis and proteomics (Somalogic). Brain regions involved in pain processing, that is, prefrontal cortex (PFC), periaqueductal grey (PAG), whole spinal cords (SC), and L4-L6 dorsal root ganglia, were collected for lipidomic and genomic (Genewiz, China) analyses. Lipid extraction from tissues was performed as previously described.[40] Samples were flash frozen in liquid nitrogen, weighed and transferred to a centrifuge tube with HPLC-grade methanol (Thermo Fisher Scientific, Fair Lawn, NJ). Tubes were spiked with 500 picomoles d8AEA (Cayman Chemical, Ann Arbor, MI). Samples were left on ice for 2 hours, homogenised and centrifuged at 19,000 g for 20 minutes at 20°C. […] Elution samples were then analysed by HPLC MS/MS as previously described.[40] 20 μL samples were run on an Agilent XDB-C18 reversed-phase analytical column and analysed using an Applied Biosystems API 3,000 triple quadrupole mass spectrometer with electrospray ionisation (Foster City, CA). […] Concentrations in mols/gram were adjusted according to extraction efficiency, as determined by d8AEA recovery. For each individual lipid species, samples were unblinded, fold-change compared to the vehicle was calculated and significance calculated by t-test (P < .05 and P < .1) in R."}, "[8]": {"system": "PAG, DRG and PFC transcriptomes", "test": "Transcriptomic analysis (RNA-seq) of terminal tissues, OIPN prevention study", "format": "in vivo, male Sprague Dawley rats", "text": "Pain measurements were made on Days 5/6 (when neuropathy has normally developed) and at the end of the study. […] Terminal plasma samples were taken for bioanalysis and proteomics (Somalogic). Brain regions involved in pain processing, that is, prefrontal cortex (PFC), periaqueductal grey (PAG), whole spinal cords (SC), and L4-L6 dorsal root ganglia, were collected for lipidomic and genomic (Genewiz, China) analyses. Sequencing (Illumnia NovoSeq) was done at Genewiz (Shanghai, China). Sequence reads were trimmed using Trimmomatic (v.0.36). Reads were then aligned to the R. norvegicus Rnor6.0 reference genome (https://www.ncbi.nlm.nih.gov/assembly/GCF_000001895.5/) using the STAR aligner (v.2.5.2b) and unique gene hit counts were calculated using featureCounts from the Subread package (v.1.5.2). Differentially expressed genes were determined using limma 3.46.0. […] Visualisation was done using the EnhancedVolcano (1.7.10) package in R. Gene set enrichment analysis was carried out using the gprofiler2 package in R."}, "[9]": {"system": "painful diabetic neuropathy", "conditions": "cited from earlier work"}}}
{"smiles": "COc1ccccc1[C@@H]1[C@H](C(=O)O)[C@@H](c2ccccc2OC)[C@H]1C(=O)OC1Cc2ccccc2C1", "note": "[ART26.12, (+)–3-Indan-2-yloxycarbonyl-2,4-bis(2-methoxyphenyl)cyclobutanecarboxylic acid]", "values": [{"measurement": "binding to CCK1 in secondary pharmacology screening", "setting": "[1]", "result": "greater than 50%"}, {"measurement": "binding to CCK2 in secondary pharmacology screening", "setting": "[2]", "result": "greater than 50%"}, {"measurement": "binding to cathepsin G in secondary pharmacology screening", "setting": "[3]", "result": "greater than 50%"}, {"measurement": "binding to δ (DOP) in secondary pharmacology screening", "setting": "[4]", "result": "greater than 50%"}, {"measurement": "average total plasma concentration", "setting": "[5]", "result": "6.5 ± .6 µM"}, {"measurement": "total brain concentration", "setting": "[5]", "result": ".15 ± .02 µM"}, {"measurement": "mean plasma levels on Day 15", "setting": "[6]; 10 mg/kg BID", "result": "4.49 ± .99 µM"}, {"measurement": "mean plasma levels on Day 15", "setting": "[6]; 25 mg/kg BID", "result": "7.45 ± 1.58", "unit": "µM"}, {"measurement": "increase of N-docosahexaenoyl proline in DRG", "setting": "[7]", "result": 9, "unit": "fold"}, {"measurement": "transcriptomic changes in PFC", "setting": "[8]", "result": "No significant changes"}, {"measurement": "transcriptomic changes in DRG", "setting": "[8]; P < .05, FC > 1.5", "result": "only glycine decarboxylase being significantly upregulated"}, {"measurement": "number of significantly different genes in PAG", "setting": "[8]; P < .05, log2FC > .58", "result": 20, "unit": "genes"}, {"measurement": "effect on established painful diabetic neuropathy", "setting": "[9]", "result": "treats established painful diabetic neuropathy"}]}
